“And” between values parts separate entries of the source, which are not always exact repeats. Equal entries are not always repeated.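 Results reflect a 48-hour exposure of cells in 96-well plates to compound at five concentrations. The concentration for 50% growth inhibition is given as GI50. TGI denotes the concentration required for complete inhibition of growth.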
What was measured:
Test in all cases: NCI tumour cell line growth inhibition, 48 h
COLO 205 colon = tested on: COLO 205 colon
RXF 393 renal = tested on: RXF 393 renal
SK-MEL-5 melanoma = tested on: SK-MEL-5 melanoma
SK-MEL-28 melanoma = tested on: SK-MEL-28 melanoma
OVCAR-4 ovarian = tested on: OVCAR-4 ovarian
SK-MEL-2 melanoma = tested on: SK-MEL-2 melanoma
HOP-92 NSCLC = tested on: HOP-92 NSCLC
UACC-257 melanoma = tested on: UACC-257 melanoma
T-47D breast = tested on: T-47D breast
MCF7 breast = tested on: MCF7 breast

Row | Compound | TGI (COLO 205 colon) | TGI (RXF 393 renal) | TGI (SK-MEL-5 melanoma) | TGI (SK-MEL-28 melanoma) | TGI (OVCAR-4 ovarian) | TGI (SK-MEL-2 melanoma) | TGI (HOP-92 NSCLC) | TGI (UACC-257 melanoma) | TGI (T-47D breast) | TGI (MCF7 breast) | GI50 (COLO 205 colon) | GI50 (RXF 393 renal) | GI50 (SK-MEL-5 melanoma) | GI50 (SK-MEL-28 melanoma) | GI50 (OVCAR-4 ovarian) | GI50 (SK-MEL-2 melanoma) | GI50 (HOP-92 NSCLC) | GI50 (UACC-257 melanoma) | GI50 (T-47D breast) | GI50 (MCF7 breast)
1 | O=C(O)c1c(O)c2cc(Br)ccc2oc1=O | > 100 µM | > 100 µM | > 100 µM | > 100 µM | > 100 µM | > 100 µM | > 100 µM | > 100 µM | > 100 µM | > 100 µM | – | – | – | – | – | – | – | – | – | –
2 | S=c1nc(-c2nc(=S)[nH]c3c2CCCCCCCCCC3)c2c([nH]1)CCCCCCCCCC2 | > 100 µM | > 100 µM | > 100 µM | > 100 µM | > 100 µM | > 100 µM | > 100 µM | > 100 µM | > 100 µM | > 100 µM | – | – | – | – | – | – | – | – | – | –
3 | COc1cc(C)c(C(=O)O[C@H]2[C@H](O[C@H]3[C@@H](O)COC(O[C@H]4C[C@H]5[C@@H]6CC=C7C[C@@H](O)CC[C@]7(C)[C@H]6CC[C@]5(C)[C@H]4[C@H](C)C(=O)CCC(C)C)[C@@H]3OC(C)=O)OC[C@@H](O)[C@@H]2O)c(C)c1 (stereo partly specified) | 0.382 µM | < 0.01 µM | 0.0181 µM | 0.0192 µM | 69.9 µM | 0.302 µM | 2.58 µM | 0.0738 µM | 16.7 µM | 7.62 µM | 0.0307 µM | < 0.01 µM | < 0.01 µM | < 0.01 µM | 0.571 µM | < 0.01 µM | < 0.01 µM | 0.021 µM | 0.0249 µM | < 0.01 µM
4 | O=C(c1ccccc1Nc1ccnc(C(F)(F)F)c1)N1CCN(c2cccc(Cl)c2)CC1 | 30.1 µM | 64.8 µM | 21.8 µM | > 100 µM | > 100 µM | 50.3 µM | 25 µM | 49.2 µM | 74.4 µM | 80 µM | 15.1 µM | 16.3 µM | 8.29 µM | 26.5 µM | 12.7 µM | 21.1 µM | 0.914 µM | 12.8 µM | 10.7 µM | 18 µM
5 | O=c1[nH]cc(CS(=O)(=O)Cc2c[nH]c(=O)[nH]c2=O)c(=O)[nH]1 | > 100 µM | > 100 µM | > 100 µM | > 100 µM | > 100 µM | > 100 µM | > 100 µM | > 100 µM | > 100 µM | > 100 µM | – | – | – | – | – | – | – | – | – | –
6 | C#CCN1C(=O)/C(=c2\sc3n(c2=O)C2C(NN=3)N(CC)C(=O)N2CC)c2ccccc21 (stereo unspecified) | > 100 µM | 2.28 µM | > 85.9 µM | > 100 µM | > 100 µM | > 100 µM | 78.7 µM | > 100 µM | > 100 µM | > 100 µM | 0.987 µM | 0.354 µM | 0.529 µM | 0.734 µM | > 27.3 µM | 3.21 µM | 1.55 µM | 49.2 µM | 0.639 µM | 0.377 µM
7 | C=C1CCC2C3(C)COC(c4ccc(NC(C)=O)cc4)OC3CCC2(C)C1C/C=C1/C(=O)OCC1O (stereo unspecified) | > 100 µM | > 100 µM | > 100 µM | > 100 µM | > 100 µM | > 100 µM | > 100 µM | > 100 µM | > 100 µM | > 100 µM | 4.22 µM | 46.9 µM | 3.57 µM | > 100 µM | 6.81 µM | 8.12 µM | 3.83 µM | 6.26 µM | 2.53 µM | 4.58 µM
8 | O=C1c2ccccc2C(=O)c2c(NCCCNCCO)ccc(NCCCNCCO)c21 | 18.9 µM | 18.2 µM | 28.7 µM | 16.8 µM | 26.9 µM | 17.7 µM | 26.2 µM | 46.8 µM | 68.2 µM | 10.8 µM | – | – | – | – | – | – | – | – | – | –
9 | CN1/C(=C\C(I)C(I)C2=[N+](C)c3ccccc3C2(C)C)C(C)(C)c2ccccc21 (stereo unspecified) | 0.733 µM | 3.6 µM | 0.528 µM | 19.8 µM | 22.5 µM | 2.75 µM | 1.23 µM | 2.24 µM | 9.39 µM | 19.2 µM | 0.21 µM | 0.497 µM | 0.126 µM | 0.522 µM | 0.25 µM | 0.39 µM | 0.0931 µM | 0.175 µM | 0.0852 µM | 0.485 µM
10 | C/C(=C\c1ccc(Cl)cc1)C(C)(C)C(=O)O | > 100 µM | > 100 µM | > 100 µM | > 100 µM | > 100 µM | > 100 µM | > 100 µM | > 100 µM | > 100 µM | > 100 µM | – | – | – | – | – | – | – | – | – | –
11 | CN(C)c1ccc(/C=C2\C[C@H]3[C@@H]4CC=C5C[C@@H](N6CCCC6)CC[C@]5(C)[C@H]4CC[C@]3(C)[C@H]2O)cc1 | 4.12 µM | 2.65 µM and 12.3 µM | 1.62 µM and 12.7 µM | 1.84 µM | 2 µM and 5.96 µM | 2.35 µM and 3.89 µM | 4.98 µM | 1.89 µM and 4.02 µM | 2.33 µM and 6.03 µM | 12.5 µM | – | 3.47 µM | 3.44 µM | – | 2.16 µM | 2 µM | – | 2.09 µM | 2.33 µM | –
12 | COc1ccc(-c2ccc3c(NC(=O)C4CC4)n[nH]c3n2)cc1 | > 25 µM | > 25 µM | > 25 µM | > 25 µM | > 25 µM | > 25 µM | > 25 µM | > 25 µM | > 25 µM | > 25 µM | > 25 µM | 15 µM | > 25 µM | > 25 µM | > 25 µM | > 25 µM | 8.02 µM | > 25 µM | > 25 µM | > 25 µM
13 | O=C(NCc1cccnc1)/C(=C\c1ccc(Br)cc1)S(=O)(=O)c1ccccc1 | 2.65 µM | 1.42 µM | 2.69 µM | 2.55 µM | 1.8 µM | 3.03 µM | 2.23 µM | 2.68 µM | 3.12 µM | 2.11 µM | 1.22 µM | 0.413 µM | 1.38 µM | 1.11 µM | 0.416 µM | 1.43 µM | 0.745 µM | 1.25 µM | 1.04 µM | 0.409 µM
14 | S=c1nc[nH]c2c1ncn2Cc1ccco1 | > 100 µM | > 100 µM | > 100 µM | > 100 µM | > 100 µM | > 100 µM | > 100 µM | > 100 µM | > 100 µM | > 100 µM | – | – | – | – | – | – | – | – | – | –
15 | CCCS(=O)(=O)Nc1ccc(F)c(C(=O)c2c[nH]c3ncc(-c4ccc(Cl)cc4)cc23)c1F | 11.2 µM and > 5.32 µM | 6.58 µM and > 10 µM | 13.6 µM and > 10 µM | 2.98 µM and 0.696 µM | 25.7 µM and > 10 µM | 14.7 µM and > 10 µM | 12.5 µM and > 10 µM | 3.71 µM and 0.604 µM | 24.8 µM and > 10 µM | 20.9 µM and > 10 µM | 0.0487 µM and 0.0423 µM | 1.89 µM and 3.53 µM | 0.471 µM and 1.85 µM | 0.0369 µM and 0.0422 µM | 6.13 µM and > 7.33 µM | 4.11 µM and 3.65 µM | 2.63 µM and 4.84 µM | 0.0485 µM and 0.0643 µM | 5.34 µM and 5.13 µM | 5.24 µM and 8.84 µM

Reference: PubChem BioAssay (NCI)
